Experimental data from paper PMC6002837 (Bioorganic & medicinal chemistry letters, 2015).

Biological target: T1, Rtt109–Vps75 (Saccharomyces cerevisiae, UniProt Q07794)
T1 sequence (Q07794 1-436): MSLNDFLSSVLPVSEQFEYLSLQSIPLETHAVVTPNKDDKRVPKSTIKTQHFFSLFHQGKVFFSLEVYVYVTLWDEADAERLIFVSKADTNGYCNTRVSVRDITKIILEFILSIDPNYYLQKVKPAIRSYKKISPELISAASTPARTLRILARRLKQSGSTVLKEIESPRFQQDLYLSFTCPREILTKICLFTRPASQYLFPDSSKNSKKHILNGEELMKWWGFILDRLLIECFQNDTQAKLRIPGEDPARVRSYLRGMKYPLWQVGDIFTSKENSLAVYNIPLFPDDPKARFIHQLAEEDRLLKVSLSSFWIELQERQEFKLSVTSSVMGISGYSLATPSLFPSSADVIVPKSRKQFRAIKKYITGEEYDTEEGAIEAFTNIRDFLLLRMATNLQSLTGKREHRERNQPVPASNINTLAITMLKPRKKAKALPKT
T1 sequence (P53853 1-264 partner): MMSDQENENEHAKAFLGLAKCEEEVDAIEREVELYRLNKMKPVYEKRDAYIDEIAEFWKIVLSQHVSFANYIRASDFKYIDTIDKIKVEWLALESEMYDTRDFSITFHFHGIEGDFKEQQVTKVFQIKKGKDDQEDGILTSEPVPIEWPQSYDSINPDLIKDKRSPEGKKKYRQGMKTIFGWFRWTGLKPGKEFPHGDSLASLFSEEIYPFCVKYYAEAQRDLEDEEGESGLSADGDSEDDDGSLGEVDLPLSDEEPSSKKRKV
Assay: in vitro [3H]-acetyl-CoA HAT assay, Rtt109–Vps75
Assay type: biochemical, yeast
Conditions: radiolabeled HAT assay; p = 0.61, n = 3 for 1a

CCN(CC)c1ccc2c(C)c(-c3ccc(N4C(=O)C=CC4=O)cc3)c(=O)oc2c1 [CPM, N-[4-(7-diethylamino-4-methylcoumarin-3-yl)phenyl]maleimide]
difference in IC50 values in presence or absence of DTT and BSA: significant decrease in IC50
